Assay results reported in ChEMBL document CHEMBL1201862, “PubChem BioAssay data set” (2004).
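Following 48 hours of exposure in 96-well plates, responses at five concentrations were used to interpolate endpoints linearly. GI50 = concentration required for 50% inhibition of growth.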 The source made the active and inactive calls. No stated cut-off is given here; in the data, active = GI50 up to about 1.1 µM and inactive = higher.

Key:
Assay in all cases: NCI-60 cell line screen, 48 h
NCI-H226 = tested on: NCI-H226
UACC-257 = tested on: UACC-257
CAKI-1 = tested on: CAKI-1
PC-3 = tested on: PC-3
DU-145 = tested on: DU-145
NCI-H23 = tested on: NCI-H23
IGROV-1 = tested on: IGROV-1
BT-549 = tested on: BT-549
Hs-578T = tested on: Hs-578T
A498 = tested on: A498
LOX IMVI = tested on: LOX IMVI
MCF7 = tested on: MCF7
SK-MEL-28 = tested on: SK-MEL-28
MDA-N = tested on: MDA-N
M14 = tested on: M14
EKVX = tested on: EKVX
T47D = tested on: T47D
K562 = tested on: K562
SK-MEL-2 = tested on: SK-MEL-2
RXF 393 = tested on: RXF 393
HCC 2998 = tested on: HCC 2998
OVCAR-4 = tested on: OVCAR-4
CCRF-CEM = tested on: CCRF-CEM
MDA-MB-231 = tested on: MDA-MB-231
HCT-116 = tested on: HCT-116
SF-539 = tested on: SF-539
HL-60 = tested on: HL-60
TK-10 = tested on: TK-10
SNB-75 = tested on: SNB-75
SK-MEL-5 = tested on: SK-MEL-5
SW-620 = tested on: SW-620
HOP-92 = tested on: HOP-92
HT-29 = tested on: HT-29
OVCAR-5 = tested on: OVCAR-5
HCT-15 = tested on: HCT-15
SF-268 = tested on: SF-268
A549 = tested on: A549
SK-OV-3 = tested on: SK-OV-3
MDA-MB-435 = tested on: MDA-MB-435
KM12 = tested on: KM12
MOLT-4 = tested on: MOLT-4
ACHN = tested on: ACHN
UO-31 = tested on: UO-31
OVCAR-3 = tested on: OVCAR-3
COLO 205 = tested on: COLO 205
SN12C = tested on: SN12C
UACC-62 = tested on: UACC-62
NCI-H522 = tested on: NCI-H522
OVCAR-8 = tested on: OVCAR-8
NCI-H460 = tested on: NCI-H460
RPMI-8226 = tested on: RPMI-8226
NCI/ADR-RES = tested on: NCI/ADR-RES
Malme-3M = tested on: Malme-3M
SR = tested on: SR
U-251 = tested on: U-251
HOP-62 = tested on: HOP-62
SNB-19 = tested on: SNB-19

Measured: GI50

NC(Cc1ccc(OCc2ccccc2)cc1)C(=O)NC(Cc1ccccc1)C(=O)Oc1c(Cl)c(Cl)c(Cl)c(Cl)c1Cl (configuration not stated)
16.4 µM: HCT-15
inactive: NCI-H226 13.2 µM | UACC-257 15.9 µM | CAKI-1 16.7 µM | PC-3 17.7 µM | DU-145 12.8 µM | NCI-H23 16.8 µM | IGROV-1 15.3 µM | BT-549 17.5 µM | Hs-578T 14 µM | A498 20.9 µM | LOX IMVI 14 µM | MCF7 19 µM | SK-MEL-28 16.5 µM | MDA-N 12.7 µM | M14 14.2 µM | EKVX 17.7 µM | T47D 17.9 µM | K562 53.1 µM | SK-MEL-2 13.3 µM | RXF 393 15 µM | HCC 2998 19.1 µM | OVCAR-4 17.4 µM | CCRF-CEM > 100 µM | MDA-MB-231 13 µM | HCT-116 17.5 µM | SF-539 16.7 µM | HL-60 69.5 µM | TK-10 15.3 µM | SNB-75 15.7 µM | SK-MEL-5 17.3 µM | SW-620 16.8 µM | HOP-92 11.9 µM | HT-29 17.5 µM | OVCAR-5 15.6 µM | SF-268 20.3 µM | A549 18.4 µM | SK-OV-3 14.7 µM | MDA-MB-435 18.3 µM | KM12 15.4 µM | MOLT-4 39.2 µM | ACHN 16.5 µM | UO-31 16.4 µM | OVCAR-3 15.5 µM | COLO 205 14.6 µM | SN12C 17.3 µM | UACC-62 17 µM | NCI-H522 23.1 µM | OVCAR-8 16.5 µM | NCI-H460 14.7 µM | RPMI-8226 40.9 µM | NCI/ADR-RES 17.9 µM | Malme-3M 20.9 µM | SR 54.1 µM | U-251 17.1 µM | HOP-62 16.6 µM | SNB-19 17.7 µM
